Reference: patent US11312723B2, “Pyranopyrazole and pyrazolopyridine immunomodulators for treatment of autoimmune diseases” (The Rockefeller University, priority 2017, dated 2022)

How the values were obtained:
Human alpha-thrombin = Human alpha-thrombin (Homo sapiens (Human), UniProt P00734); experiment: Thrombin counterscreen for selectivity, fluorogenic substrate cleavage; type: biochemical; conditions: 10 min pre-incubation, Boc-Val-Pro-Arg-AMC 20 μM
Protocol: Counterscreens for Selectivity:
Thrombin. In a 96-well white opaque plate, 80 μl of assay buffer was added to each well. Test compounds were added, and serially diluted as above, to generate a concentration range of approximately 1-100 μM. Human alpha-thrombin (Enzyme Research Labs) was diluted in assay buffer to a final concentration of 12.5 nM. 80 μl of this enzyme solution was added to the assay wells. The enzyme/compound mixtures were incubated for 10 minutes at room temperature. Fluorogenic substrate (Boc-Val-Pro-Arg-7-amido-4-methylcoumarin; Sigma) was added to assay wells at a final concentration of 20 μM. The assay plate was spun for 1 minute at 1500 g and then read at 37° C. in a SpectraMax M2 plate reader (λex=380 nm and λem=460 nm). Activity was quantified as the rate of change in fluorescence, which corresponds to the rate of substrate cleavage. IC50 values were determined as the concentration of inhibitor that produced 50% of the rate of change of control wells without any inhibitor. For compounds with activity <1 μM, the assay was repeated with a lower concentration range, typically from 10-1000 nM.

Human FXIIa = Human FXIIa (Homo sapiens (Human), UniProt P00748); experiment: Factor XIIa (FXIIa) inhibitory activity, chromogenic substrate (Pefachrome XIIa) cleavage; type: biochemical; conditions: 10 min pre-incubation, Pefachrome XIIa 400 μM
Chain of Human FXIIa (P00748 373-615): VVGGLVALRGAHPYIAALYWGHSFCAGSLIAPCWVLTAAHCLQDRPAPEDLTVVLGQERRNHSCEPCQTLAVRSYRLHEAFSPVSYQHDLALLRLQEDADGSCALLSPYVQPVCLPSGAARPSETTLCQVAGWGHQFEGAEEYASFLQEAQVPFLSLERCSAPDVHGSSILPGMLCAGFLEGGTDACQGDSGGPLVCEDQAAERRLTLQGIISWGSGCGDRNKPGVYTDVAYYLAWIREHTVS
Chain of Human FXIIa (P00748 20-372 partner): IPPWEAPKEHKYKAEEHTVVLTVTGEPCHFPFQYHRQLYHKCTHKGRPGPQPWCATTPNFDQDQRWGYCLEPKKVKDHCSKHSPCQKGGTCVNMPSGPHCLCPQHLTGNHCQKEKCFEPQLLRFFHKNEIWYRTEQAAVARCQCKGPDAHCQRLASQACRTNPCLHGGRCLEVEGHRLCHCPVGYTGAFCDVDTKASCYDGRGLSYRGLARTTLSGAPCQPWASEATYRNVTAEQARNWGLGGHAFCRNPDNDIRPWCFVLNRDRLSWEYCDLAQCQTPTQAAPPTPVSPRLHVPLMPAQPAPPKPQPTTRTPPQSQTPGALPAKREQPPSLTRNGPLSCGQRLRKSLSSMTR

Compound | IC50 (Human alpha-thrombin) [µM] | IC50 (Human FXIIa) [nM]
CS(=O)(=O)N1CCc2c(nn(C(=O)C3CCNc4ccc(F)cc43)c2N)C1 (single isomer, unassigned) [Example 16, (3-amino-6-(methylsulfonyl)-4,5,6,7-tetrahydropyrazolo[3,4-c]pyridin-2-yl)(6-fluoro-1,2,3,4-tetrahydroquinolin-4-yl)methanone] | 20 | 60
CS(=O)(=O)N1CCc2c(nn(C(=O)C3CCNc4ccc(F)cc43)c2N)C1 (single isomer, unassigned) [Example 18, (S*)-(3-amino-6-(methylsulfonyl)-4,5,6,7-tetrahydropyrazolo[3,4-c]pyridin-2-yl)(6-fluoro-1,2,3,4-tetrahydroquinolin-4-yl)methanone] | 12.5 | 30
Cc1cc(F)cc2c1NCCC2C(=O)n1nc2c(c1N)CCN(S(C)(=O)=O)C2 (single isomer, unassigned) [Example 53, (S*)-(3-amino-6-(methylsulfonyl)-4,5,6,7-tetrahydropyrazolo[3,4-c]pyridin-2-yl)(6-fluoro-8-methyl-1,2,3,4-tetrahydroquinolin-4-yl)methanone] | 9 | 10
CS(=O)(=O)N1CCc2c(nn(C(=O)C3CCNc4c(Cl)cccc43)c2N)C1 (single isomer, unassigned) [Example 60, (S*)-(3-amino-6-(methylsulfonyl)-4,5,6,7-tetrahydropyrazolo[3,4-c]pyridin-2-yl)(8-chloro-1,2,3,4-tetrahydroquinolin-4-yl)methanone] | > 60 | 30
COc1cccc2c1NCCC2C(=O)n1nc2c(c1N)CCN(S(C)(=O)=O)C2 (single isomer, unassigned) [Example 63, (S*)-(3-amino-6-(methylsulfonyl)-4,5,6,7-tetrahydropyrazolo[3,4-c]pyridin-2-yl)(8-methoxy-1,2,3,4-tetrahydroquinolin-4-yl)methanone] | 35 | 140
CCc1cc(C)c2c(c1)C(C(=O)n1nc3c(c1N)CCN(S(C)(=O)=O)C3)CCN2 (single isomer, unassigned) [Example 69, (3-amino-6-(methylsulfonyl)-4,5,6,7-tetrahydropyrazolo[3,4-c]pyridin-2-yl)((S*)-6-ethyl-8-methyl-1,2,3,4-tetrahydroquinolin-4-yl)methanone] | 40 | 10
Cc1cc(F)cc2c1NCCC2C(=O)n1nc2c(c1N)CCOC2 (single isomer, unassigned) [Example 76, (S*)-(3-amino-4,5-dihydropyrano[3,4-c]pyrazol-2(7H)-yl)(6-fluoro-8-methyl-1,2,3,4-tetrahydroquinolin-4-yl)methanone] | > 100 | 50
CS(=O)(=O)N1CCc2c(nn(C(=O)[C@H]3CCCc4[nH]c(Cl)cc43)c2N)C1 (single isomer, unassigned) [Example 131, (S*)-(3-amino-6-(methylsulfonyl)-4,5,6,7-tetrahydro-pyrazolo[3,4-c]pyridin-2-yl)(2-chloro-4,5,6,7-tetrahydro-1H-indol-4-yl)methanone] | 1.5 | 30
CS(=O)(=O)N1CCc2c(nn(C(=O)[C@H]3CCNc4ccccc43)c2N)C1 (single isomer, unassigned) [Example 135, (S*)-(3-amino-6-(methylsulfonyl)-4,5,6,7-tetrahydro-pyrazolo[3,4-c]pyridin-2-yl)(1,2,3,4-tetrahydro-quinolin-4-yl)methanone] | 28 | 80
Nc1c2c(nn1C(=O)[C@H]1CCNc3ccc(F)cc31)CNCC2 (single isomer, unassigned) [Example 146, (S*)-(3-amino-4,5,6,7-tetrahydro-pyrazolo[3,4-c]pyridin-2-yl)(6-fluoro-1,2,3,4-tetrahydro-quinolin-4-yl)methanone] | > 90 | 70
CCN1CCc2c(nn(C(=O)[C@H]3CCNc4ccc(F)cc43)c2N)C1 (single isomer, unassigned) [Example 165, (S*)-(3-amino-6-ethyl-4,5,6,7-tetrahydro-pyrazolo[3,4-c]pyridin-2-yl)(6-fluoro-1,2,3,4-tetrahydro-quinolin-4-yl)methanone] | > 75 | 30
CCN1CCc2c(nn(C(=O)[C@H]3CCNc4c(C)cc(F)cc43)c2N)C1 (single isomer, unassigned) [Example 170, (S*)-(3-amino-6-ethyl-4,5,6,7-tetrahydro-pyrazolo[3,4-c]pyridin-2-yl)(6-fluoro-8-methyl-1,2,3,4-tetrahydro-quinolin-4-yl)methanone] | > 90 | 10
CCN1CCc2c(nn(C(=O)[C@H]3CCNc4c(C)cccc43)c2N)C1 (single isomer, unassigned) [Example 173, (S*)-(3-amino-6-ethyl-4,5,6,7-tetrahydro-pyrazolo[3,4-c]pyridin-2-yl)(8-methyl-1,2,3,4-tetrahydroquinolin-4-yl)methanone] | > 100 | 20
Cc1cccc2c1NCC[C@@H]2C(=O)n1nc2c(c1N)CCNC2 (single isomer, unassigned) [Example 176, (S*)-(3-amino-4,5,6,7-tetrahydro-pyrazolo[3,4-c]pyridin-2-yl)(8-methyl-1,2,3,4-tetrahydro-quinolin-4-yl)methanone] | > 90 | 100
Nc1c2c(nn1C(=O)[C@H]1CCNc3ccc(F)cc31)COCC2 (single isomer, unassigned) [Example 196, (S*)-(3-amino-4,5-dihydropyrano[3,4-c]pyrazol-2(7H)-yl)(6-fluoro-1,2,3,4-tetrahydro-quinolin-4-yl)methanone] | 95 | 80
Cc1cccc2c1NCC[C@@H]2C(=O)n1nc2c(c1N)CCOC2 (single isomer, unassigned) [Example 198, (S*)-(3-amino-4,5-dihydropyrano[3,4-c]pyrazol-2(7H)-yl)(8-methyl-1,2,3,4-tetrahydro-quinolin-4-yl)methanone] | > 150 | 90
CN1CCc2nn(C(=O)C3CCCc4[nH]c(Cl)cc43)c(N)c2C1 (stereo not drawn) [Example 3, (3-amino-5-methyl-4,5,6,7-tetrahydropyrazolo[4,3-c]pyridin-2-yl)(2-chloro-4,5,6,7-tetrahydro-1H-indol-4-yl)methanone] | > 35 | 350
CCc1cc2c([nH]1)CCCC2C(=O)n1nc2c(c1N)CN(C(=O)OCc1ccccc1)CC2 (stereo not drawn) [Example 4, Benzyl 3-amino-2-(2-ethyl-4,5,6,7-tetrahydro-1H-indole-4-carbonyl)-6,7-dihydro-2H-pyrazolo[4,3-c]pyridine-5(4H)-carboxylate] | > 25 | 300
CCc1cc2c([nH]1)CCCC2C(=O)n1nc2c(c1N)CNCC2 (stereo not drawn) [Example 6, (3-amino-4,5,6,7-tetrahydropyrazolo[4,3-c]pyridin-2-yl)(2-ethyl-4,5,6,7-tetrahydro-1H-indol-4-yl)methanone] | > 50 | 250
Cc1cc2c(C(=O)n3nc4c(c3N)CCN(C(=O)OC(C)(C)C)C4)cccc2[nH]1 [Example 7, Tert-butyl 3-amino-2-(2-methyl-1H-indole-4-carbonyl)-4,5-dihydro-2H-pyrazolo[3,4-c]pyridine-6(7H)-carboxylate] | > 25 | 70
Cc1ccc2c(c1)C(C(=O)n1nc3c(c1N)CCN(S(C)(=O)=O)C3)CCN2 (stereo not drawn) [Example 12, (3-amino-6-(methylsulfonyl)-4,5,6,7-tetrahydropyrazolo[3,4-c]pyridin-2-yl)(6-methyl-1,2,3,4-tetrahydroquinolin-4-yl)methanone] | > 55 | 300
CS(=O)(=O)N1CCc2c(nn(C(=O)C3CCNc4ccc(Cl)cc43)c2N)C1 (stereo not drawn) [Example 14, (3-amino-6-(methylsulfonyl)-4,5,6,7-tetrahydropyrazolo[3,4-c]pyridin-2-yl)(6-chloro-1,2,3,4-tetrahydroquinolin-4-yl)methanone] | 20 | 40
CS(=O)(=O)N1CCc2c(N)nn(C(=O)C3CCNc4ccc(Cl)cc43)c2C1 (stereo not drawn) [Example 15, (3-amino-6-(methylsulfonyl)-4,5,6,7-tetrahydropyrazolo[3,4-c]pyridin-1-yl)(6-chloro-1,2,3,4-tetrahydroquinolin-4-yl)methanone] | > 70 | > 65000
CCN1CCc2c(nn(C(=O)C3CCNc4ccccc43)c2N)C1 (stereo not drawn) [Example 20, (3-amino-6-ethyl-4,5,6,7-tetrahydropyrazolo[3,4-c]pyridin-2-yl)(1,2,3,4-tetrahydroquinolin-4-yl)methanone] | > 40 | 150
Cc1cccc2c1NCCC2C(=O)n1nc(N)c2c1CN(S(=O)(=O)C1COC1)CC2 (stereo not drawn) [Example 187, (3-amino-6-(oxetan-3-ylsulfonyl)-4,5,6,7-tetrahydro-pyrazolo[3,4-c]pyridin-1-yl)(8-methyl-1,2,3,4-tetrahydro-quinolin-4-yl)methanone] |  | 35000
Cc1cccc2c1NCCC2C(=O)n1nc(N)c2c1CCOC2 (stereo not drawn) [Example 189, (3-amino-6,7-dihydropyrano[4,3-c]pyrazol-1(4H)-yl)(8-methyl-1,2,3,4-tetrahydro-quinolin-4-yl)methanone] |  | 40000
Cc1cccc2c1NCCC2C(=O)n1nc(N)c2c1COCC2 (stereo not drawn) [Example 200, (3-amino-4,5-dihydropyrano[3,4-c]pyrazol-1(7H)-yl)(8-methyl-1,2,3,4-tetrahydro-quinolin-4-yl)methanone] |  | > 100000
